{"source": "patent US8466195B2", "about": "“Methods and compositions for treating complications of diabetes and vascular diseases using flavones” (Salk Institute for Biological Studies, priority 2009, dated 2013)", "key": {"[1]": {"tested_on": "human brain microvascular cells", "test": "Protein glycation in human brain microvascular cells exposed to glucose", "assay_type": "cell-based", "details": "1 μM fisetin", "description": "In reference to FIG. 1, BSA was incubated with either 100 mM glucose (G) or 100 mM methylglyoxal (MG) for 14 days at 37° C. plus or minus 100 μM fisetin. The BSA was dialyzed vs. PBS run on SDS-PAGE and blotted with anti-carboxymethyl lysine (CML) (a glucose AGE) or anti-MG adducts from Dr. Brownlee. […] In FIG. 1, panel B, anti-MG only reacts with MG treated BSA and also causes protein polymerization. In FIG. 1, panel C, co-incubation with fisetin results in inhibition of glucose glycation in 2 assays, Western blotting with a-CML (BL, hatched bars) and a fluorescence assay for protein glycation (FL, clear bars). In FIG. 1, panel D, fisetin inhibited protein glycation caused by high glucose exposure of human brain microvascular cells. Cells were exposed to either 5 mM (−Glu) or 25 mM (+Glu) glucose for 5 days plus (F) or minus (C) 1 μM fisetin. Cells were then harvested and blotted with either anti-CML or MG antisera."}, "STZ-diabetic rats": {"tested_on": "STZ-diabetic rats", "test": "Indices of nerve function in STZ-diabetic rats", "assay_type": "in vivo, Sprague-Dawley rats", "details": "25 mg/kg/day fisetin for 8 weeks", "description": "Adult female Sprague-Dawley rats were made diabetic with STZ and treated with vehicle or 25 mg/kg/day fisetin for 8 weeks. Large fiber function was tested by measuring nerve conduction velocity and paw withdrawal to touch and small fiber function by paw withdrawal to noxious heat. […] Data are mean±SEM of N=4-8/group."}, "Akita mice [2]": {"tested_on": "Akita mice", "test": "Kidney hypertrophy (kidney weight) in Akita mice", "assay_type": "in vivo", "details": "fisetin 0.05% in diet for 18 weeks", "description": "Male Akita mice were fed control diet or fisetin (0.05%) for 18 weeks beginning at 6 weeks of age. Kidney hypertrophy was assessed by weighing the kidneys. Kidney function was assessed by measuring the albumin/creatinine ratio in the urine. Fisetin reduced diabetes-induced renal hypertrophy and proteinuria. All data are mean±SD of N=5-7/group."}, "Akita mice [3]": {"tested_on": "Akita mice", "test": "Thermal latency response of hind paw in Akita mice", "assay_type": "in vivo", "details": "fisetin 0.05% in diet for 18 weeks", "description": "Mice were placed in an observation chamber on the surface (floor temperature 30° C.) of a modified Hargreaves apparatus (UARD, San Diego, Calif.) and allowed to acclimate for 5 min. For measurement of thermal response latency, a heat source that warmed the chamber surface at approximately 1° C./sec was moved underneath the hind paw and the time to foot withdrawal recorded automatically. The procedure was repeated 4 times on the same paw at 5 min intervals and the median of values 2-4 used to represent the thermal response latency.\n(§1) Male Akita mice were fed control diet or fisetin (0.05%) for 18 weeks beginning at 6 weeks of age. Large fiber function was tested by measuring motor nerve conduction velocity and small fiber function by paw withdrawal to noxious heat. Diabetes-induced MNCV slowing and thermal hypoalgesia were ameliorated by fisetin treatment. All data are mean±SD of N=5-7/group. […] P<0.05."}, "Akita mice [4]": {"tested_on": "Akita mice", "test": "Motor nerve conduction velocity in Akita mice", "assay_type": "in vivo", "details": "fisetin 0.05% in diet for 18 weeks", "description": "Conduction velocity of large myelinated motor fibers in the sciatic:tibial nerve system was measured in mice under isoflurane anesthesia with nerve temperature maintained at 37° C., as previously described (Calcutt et al. Diabetes 39:663-666, 1990). Briefly, stimulating electrodes were placed at the left sciatic notch and Achilles tendon and recording electrodes placed in the interosseus muscles of the ipsilateral hind paw. Electromyograms were recorded on a storage oscilloscope after stimulation at each site using single square waves (5 v, 0.05 ms) and motor nerve conduction velocity (MNCV) calculated using the peak to peak distance of the resulting M waves and the distance between the two stimulation sites. The median of 3 separate MNCV measurements was used to represent values for each mouse.\nas §1"}, "osteopontin (OPN)": {"tested_on": "osteopontin (OPN)", "test": "Kidney osteopontin (OPN) in Akita mice (immunoblot)", "assay_type": "in vivo", "details": "fisetin in diet, OPN band normalized to actin", "description": "Kidneys were homogenized in phosphate buffered saline containing protease and phosphatase inhibitors. Equal amounts of protein, as determined by the BCA assay (Pierce), were solubilized in SDS-sample buffer containing 0.1 mM Na3VO4 and 1 mM phenylmethylsulfonyl fluoride (PMSF), boiled for 5 min and either analyzed immediately or stored frozen at −70° C. Proteins were separated on 10% SDS-polyacrylamide gels and transferred to nitrocellulose. Equal loading and transfer of the samples was confirmed by staining the nitrocellulose with Ponceau-S. Transfers were blocked for 1 h at room temperature with 5% nonfat milk in TBS/0.1% Tween 20 and then incubated overnight at 4° C. in the primary antibody diluted in 5% BSA in TBS/0.05% Tween 20. The primary antibodies used were: rabbit anti-osteopontin (Millipore) and actin-HRP (Cell Signaling). […]\nOPN is a key regulator of the pathophysiological changes associated with diabetic nephropathy (Nicolas et al. Kidney Int. advance online publication, 3 Feb. 2010). […] Kidney samples from 6-7 mice were analyzed and the average intensity of the OPN band normalized to actin is shown in the graph. […] In FIG. 10, the data was analyzed by ANOVA followed by Tukey's post test. *** P<0.001"}, "[5]": {"tested_on": "peripheral and CNS immune cells", "details": "peripheral [17] and CNS [8] immune cells; cited from earlier work"}}, "note": "“Also recorded” adds a separate entry of the source.", "data": [{"smiles": "O=c1c(O)c(-c2ccc(O)c(O)c2)oc2cc(O)ccc12", "note": "[fisetin, 2-(3,4-dihydroxyphenyl)-3,7-dihydroxychromen-4-one]", "values": [{"measurement": "increase of CML and MG adducts caused by high glucose", "setting": "[1]; 25 mM glucose 5 days", "value": "blocked, at least in part"}, {"measurement": "endogenous glycation of some proteins", "setting": "[1]; low glucose medium (5 mM)", "value": "inhibits"}, {"measurement": "diabetes-induced SNCV slowing", "setting": "STZ-diabetic rats", "value": "ameliorated"}, {"measurement": "severity of diabetes", "setting": "STZ-diabetic rats", "value": "did not alter"}, {"measurement": "tactile allodynia (paw withdrawal to touch)", "setting": "STZ-diabetic rats", "value": "ameliorated"}, {"measurement": "thermal hyperalgesia (paw withdrawal to noxious heat)", "setting": "STZ-diabetic rats", "value": "ameliorated"}, {"measurement": "diabetes-induced renal hypertrophy (kidney weight)", "setting": "Akita mice [2]", "value": "greatly reduced"}, {"measurement": "diabetes-induced renal hypertrophy (kidney weight)", "setting": "Akita mice [2]; listed as Fisetin", "value": "reduced"}, {"measurement": "thermal hypoalgesia (hind paw thermal latency)", "setting": "Akita mice [3]", "value": "ameliorated; also recorded: prevented"}, {"measurement": "diabetes-induced MNCV slowing", "setting": "Akita mice [4]", "value": "ameliorated; also recorded: prevented"}, {"measurement": "diabetes-dependent upregulation of osteopontin (OPN) in kidney", "setting": "osteopontin (OPN)", "value": "Prevented"}, {"measurement": "anti-inflammatory activity", "setting": "[5]", "value": "anti-inflammatory activity"}]}]}
